# From patent US6187755A, “Benzylmaltosides as inhibitors of smooth muscle cell proliferation” (American Home Products Corporation, priority 1999, dated 2001)
# Legend:
# [1] = tested on: Porcine Smooth Muscle Cell; experiment: Porcine smooth muscle cell antiproliferation, 3H thymidine incorporation; assay type: cell-based; settings: Sus scrofa, growth factor or serum stimulated, 24-36 h at 37° C., compound added with 3H thymidine and serum / growth factor
# Procedure: Effects of Compounds on Cell Proliferation Using ^3 H Thymidine Incorporation
# Human and porcine smooth muscle cells were tested in early passage (generally passage 3-7) at sub-confluent conditions. Cultures were grown in 16 mm (24 well) multi-well culture dishes in medium 199 supplemented with 10% fetal bovine serum and 2% antibiotic / antimycotic. At sub-confluence, the cells were placed in a defined serum free medium (AIM-V; Gibco) for 24-48 h prior to initiating the experimental protocol.
# Compounds were added to each well at 50 fold dilution (20 AL / well) and the plates were incubated for 24-36 h at 37° C. in 5% CO2. Compounds were initially dissolved in 50% ethanol and serially diluted into media. Compounds were routinely evaluated at concentrations from 1 to 100 μM. As a control, grade II porcine intestinal mucosal heparin (sodium salt) was routinely evaluated in all cell preparations at concentrations from 0.1 to 100 μg/mL.
# At the completion of the test procedure, plates were placed on ice, washed three times with ice cold phosphate buffered saline (PBS) and incubated in ice cold 10% trichloroacetic acid (TCA) got 30 min to remove acid soluble proteins. Solution was transferred to scintillation vials containing 0.4 N HCl (500 μL/ vial to neutralize NaOH) and each well was rinsed two times with water (500 μL) for a total volume of 2 mL / vial.
# Data was obtained, in triplicate, for both control and experimental samples. Control (100%) data was obtained from maximally stimulated cells, as the result of growth factor or serum stimulation. Experimental data was obtained from cells maximally stimulated with growth factor or serum and treated with compound. Data are expressed as an IC50 in Table I below.
# endothelial cell = settings: literature (Castellot 1987); cited from earlier work
# smooth muscle cell (SMC) = settings: literature; cited from earlier work
# [2] = literature (Reilly 1993); cited from earlier work
Compound,IC50 [1] [µM],also measured
"CC(=O)Nc1cc(CO[C@@H]2O[C@H](Cn3cnc([N+](=O)[O-])c3)[C@@H](O[C@H]3O[C@@H]4COC(c5ccccc5)O[C@H]4[C@H](O)[C@H]3O)[C@H](O)[C@H]2O)ccc1C (stereo partly drawn) [Example 1, N-(5-{[4',6'-O-Benzylidene-6-deoxy-6-(4-nitro-1H-imidazol-1-yl)-β-D-maltosyl-oxy]-methyl}-2-methyl-phenyl)-acetamide]",11,–
"CC(=O)Nc1cc(CO[C@@H]2O[C@H](Cn3cnc([N+](=O)[O-])c3)[C@@H](O[C@H]3O[C@@H]4COC(c5ccccc5)O[C@H]4[C@H](OC(C)=O)[C@H]3OC(C)=O)[C@H](OC(C)=O)[C@H]2OC(C)=O)ccc1Cl (stereo partly drawn) [Example 2, N-(5-{[2,3,2',3'-Tetra-O-acetyl-4',6'-O-benzylidene-6-deoxy-6-(4-nitro-1 H-imidazol-1-yl)-β-D-maltosyl]-oxy-methyl}-2-chloro-phenyl)-acetamide]",0.807,–
"CC(=O)Nc1cc(CO[C@@H]2O[C@H](Cn3cnc([N+](=O)[O-])c3)[C@@H](O[C@H]3O[C@@H]4COC(c5ccccc5)O[C@H]4[C@H](O)[C@H]3O)[C@H](O)[C@H]2O)ccc1Cl (stereo partly drawn) [Example 3, N-(5-{[4',6'-O-Benzylidene-6-deoxy-6-(4-nitro-1H-imidazol-1-yl)-β-D-maltosyl]-oxy-methyl}-2-chloro-phenyl)-acetamide]",1.85,–
"CC(=O)Nc1cc(CO[C@@H]2O[C@H](CI)[C@@H](O[C@H]3O[C@@H]4COC(c5ccccc5)O[C@H]4[C@H](OC(C)=O)[C@H]3OC(C)=O)[C@H](OC(C)=O)[C@H]2OC(C)=O)ccc1Cl (stereo partly drawn) [Example 4, N-{5-[(2,2',3,3'-Tetra-O-acetyl-4',6',-O-benzylidene-6-deoxy-6-iodo-β-D-maltosyl)-oxy-methyl]-2-chloro-phenyl}-acetamide]",0.2,–
"CC(=O)Nc1cc(CO[C@@H]2O[C@H](CI)[C@@H](O[C@H]3O[C@@H]4COC(c5ccccc5)O[C@H]4[C@H](O)[C@H]3O)[C@H](O)[C@H]2O)ccc1Cl (stereo partly drawn) [Example 5, N-{5-[(4',6',-O-Benzylidene-6-deoxy-6-iodo-β-D-maltosyl)-oxy-methyl]-2-chloro-phenyl}-acetamide]",1.16,–
"CC(=O)Nc1cc(CO[C@@H]2O[C@H](CN3C(=O)c4ccccc4C3=O)[C@@H](O[C@H]3O[C@@H]4COC(c5ccccc5)O[C@H]4[C@H](OC(C)=O)[C@H]3OC(C)=O)[C@H](OC(C)=O)[C@H]2OC(C)=O)ccc1Cl (stereo partly drawn) [Example 6, N-(5-{[2,2',3,3'-Tetra-O-acetyl-4',6'-O-benzylidene-6-deoxy-6-(1,3-dioxo-1,3-dihydro-isoindol-2-yl)-β-D-maltosyl]-oxy-methyl}2-chloro-phenyl)-acetamide]",0.84,–
"CC(=O)Nc1cc(CO[C@@H]2O[C@H](CN3C(=O)c4ccccc4C3=O)[C@@H](O[C@H]3O[C@@H]4COC(c5ccccc5)O[C@H]4[C@H](O)[C@H]3O)[C@H](O)[C@H]2O)ccc1Cl (stereo partly drawn) [Example 7, N-(5-{[4',6'-O-Benzylidene-6-deoxy-6-(1,3-dioxo-1,3-dihydro-isoindol-2-yl)-β-D-maltosyl]-oxy-methyl}-2-chloro-phenyl)-acetamide]",1.59,–
"CC(=O)Nc1cc(CO[C@@H]2O[C@H](CN=[N+]=[N-])[C@@H](O[C@H]3O[C@@H]4COC(c5ccccc5)O[C@H]4[C@H](O)[C@H]3O)[C@H](O)[C@H]2O)ccc1Cl (stereo partly drawn) [Example 8, N-{5-[(6-Deoxy-6-azido-4',6'-O-benzylidene-β-D-maltosyl)-oxy-methyl]-2-chloro-phenyl}-acetamide]",0.614,–
heparan sulfate,–,endothelial cell growth (endothelial cell): able to promote endothelial cell growth; inhibition of SMC proliferation (smooth muscle cell (SMC)): endogenous inhibitors of SMC proliferation
heparin,–,endothelial cell growth (endothelial cell): able to promote endothelial cell growth; inhibition of SMC proliferation (smooth muscle cell (SMC)): endogenous inhibitors of SMC proliferation
β-cyclodextrin tetradecasulfate,–,inhibition of restenosis [2]: effective inhibitor of restenosis; inhibition of SMC proliferation (smooth muscle cell (SMC)): smooth muscle cell proliferation inhibitor
